Results taken from patent publication US20250136595A1, “ACYLATED HETEROCYCLIC QUINAZOLINE DERIVATIVES AS INHIBITORS OF ERBB2” (Enliven Inc., priority 2022, published 2025).

Legend:
[1] = molecular target: T1, phosphorylated EGFR (pEGFR) (Homo sapiens, UniProt P00533); assay: Detection of phosphorylated EGFR (pEGFR) in EGF-stimulated A431 cells (AlphaLISA); format: cell-based; conditions: A431 cells (10% FBS), 4 hours incubation, EGF 30 ng/mL for 10 minutes
T1 construct: performed to measure phosphorylated EGFR levels using A431 cells; endogenous in cells; host or cells: A431
T1 sequence (P00533 25-1210): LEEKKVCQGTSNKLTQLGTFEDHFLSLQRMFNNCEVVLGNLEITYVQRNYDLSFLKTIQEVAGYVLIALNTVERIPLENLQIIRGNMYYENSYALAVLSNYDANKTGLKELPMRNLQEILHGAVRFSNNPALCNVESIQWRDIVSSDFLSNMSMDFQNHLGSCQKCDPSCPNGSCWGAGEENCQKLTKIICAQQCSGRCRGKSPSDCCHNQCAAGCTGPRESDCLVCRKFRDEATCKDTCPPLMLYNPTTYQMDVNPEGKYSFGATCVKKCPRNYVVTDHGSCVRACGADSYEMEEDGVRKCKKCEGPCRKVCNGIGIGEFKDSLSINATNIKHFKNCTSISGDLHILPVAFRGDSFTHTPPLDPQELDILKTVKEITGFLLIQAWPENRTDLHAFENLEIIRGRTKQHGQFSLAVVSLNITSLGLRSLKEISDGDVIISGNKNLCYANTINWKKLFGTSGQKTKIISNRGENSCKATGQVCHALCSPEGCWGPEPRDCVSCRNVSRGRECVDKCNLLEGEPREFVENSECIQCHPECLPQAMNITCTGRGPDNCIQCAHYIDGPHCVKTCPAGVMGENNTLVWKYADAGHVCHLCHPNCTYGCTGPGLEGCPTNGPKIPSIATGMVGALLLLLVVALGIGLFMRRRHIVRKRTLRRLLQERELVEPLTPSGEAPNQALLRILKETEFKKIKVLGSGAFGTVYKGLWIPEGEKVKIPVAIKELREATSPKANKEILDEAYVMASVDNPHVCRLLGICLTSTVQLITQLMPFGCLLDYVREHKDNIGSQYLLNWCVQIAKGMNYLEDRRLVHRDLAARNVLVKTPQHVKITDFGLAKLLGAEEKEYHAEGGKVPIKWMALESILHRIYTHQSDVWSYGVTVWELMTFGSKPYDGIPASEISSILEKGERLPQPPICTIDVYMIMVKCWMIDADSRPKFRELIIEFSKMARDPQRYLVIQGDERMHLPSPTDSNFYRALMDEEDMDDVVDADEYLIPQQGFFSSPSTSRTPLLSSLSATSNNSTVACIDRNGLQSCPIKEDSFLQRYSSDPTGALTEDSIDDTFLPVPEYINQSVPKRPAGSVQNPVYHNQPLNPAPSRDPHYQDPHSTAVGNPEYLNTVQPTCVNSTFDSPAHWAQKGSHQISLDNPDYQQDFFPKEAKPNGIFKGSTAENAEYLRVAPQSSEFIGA
Summary of the method: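 Cells in 10% FBS treated with compound 4 h at 37° C., then stimulated 10 min with 30 ng/mL EGF, lysed, and pEGFR measured by AlphaLISA. Inhibition normalized to DMSO and staurosporine controls; IC50 from four-parameter logistic fit.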

[2] = molecular target: T2, phosphorylated ERBB2 (pERBB2) (Homo sapiens, UniProt P04626); assay: Detection of phosphorylated ERBB2 (pERBB2) by ELISA in BT-474 cells; format: cell-based; conditions: four hour incubation with compound
T2 construct: endogenous in cells; host or cells: BT-474
T2 sequence (P04626 23-1255): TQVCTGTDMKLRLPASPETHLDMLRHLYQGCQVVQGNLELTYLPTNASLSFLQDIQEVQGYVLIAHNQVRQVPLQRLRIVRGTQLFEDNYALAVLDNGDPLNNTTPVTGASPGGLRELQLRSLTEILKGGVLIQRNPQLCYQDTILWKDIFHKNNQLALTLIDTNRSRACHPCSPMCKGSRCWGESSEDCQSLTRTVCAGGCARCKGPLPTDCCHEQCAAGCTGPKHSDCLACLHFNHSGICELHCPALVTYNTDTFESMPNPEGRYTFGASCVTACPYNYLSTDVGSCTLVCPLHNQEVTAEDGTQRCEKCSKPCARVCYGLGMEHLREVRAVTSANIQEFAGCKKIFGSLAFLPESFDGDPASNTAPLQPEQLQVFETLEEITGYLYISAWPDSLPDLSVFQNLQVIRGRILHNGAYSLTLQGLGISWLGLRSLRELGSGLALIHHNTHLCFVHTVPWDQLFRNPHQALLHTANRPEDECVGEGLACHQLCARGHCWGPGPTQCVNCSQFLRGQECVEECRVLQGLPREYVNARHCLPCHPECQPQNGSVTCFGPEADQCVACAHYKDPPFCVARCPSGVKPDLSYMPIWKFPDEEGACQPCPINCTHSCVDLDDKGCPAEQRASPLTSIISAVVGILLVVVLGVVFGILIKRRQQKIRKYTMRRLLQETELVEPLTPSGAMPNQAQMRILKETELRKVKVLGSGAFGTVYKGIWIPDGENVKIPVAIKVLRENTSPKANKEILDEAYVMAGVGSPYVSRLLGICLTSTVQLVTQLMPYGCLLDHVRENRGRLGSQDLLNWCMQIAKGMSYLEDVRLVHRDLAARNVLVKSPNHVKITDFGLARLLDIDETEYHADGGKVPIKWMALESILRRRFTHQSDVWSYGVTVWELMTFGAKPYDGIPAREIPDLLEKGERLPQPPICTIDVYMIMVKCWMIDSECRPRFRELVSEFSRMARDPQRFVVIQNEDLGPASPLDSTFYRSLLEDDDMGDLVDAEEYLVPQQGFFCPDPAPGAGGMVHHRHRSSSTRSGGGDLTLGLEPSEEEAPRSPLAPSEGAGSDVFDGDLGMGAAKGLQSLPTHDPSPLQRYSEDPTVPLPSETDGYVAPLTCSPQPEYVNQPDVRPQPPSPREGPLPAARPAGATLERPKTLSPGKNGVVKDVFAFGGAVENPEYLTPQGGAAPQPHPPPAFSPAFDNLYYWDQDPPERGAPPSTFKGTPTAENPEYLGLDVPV
Summary of the method: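 BT-474 cells treated 4 h at 37 °C, 5% CO2 with four-fold dilutions (10 μM to 0.01 nM final). Lysates analysed by ELISA for pERBB2, TMB read at OD 450 nm. % relative activity normalised to no-cell (low) and 0.1% DMSO-treated (high) controls.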

[3] = molecular target: Ba/F3 ERBB2 YVMA (Homo sapiens, UniProt P04626, DUP772-775, cells depend on it); assay: Cell viability assay (CellTiter Glo) in Ba/F3 cells engineered to express ERBB2 YVMA; format: cell-based, mouse; conditions: Ba/F3 cells expressing human ERBB2 YVMA mutant, 72 hours, % viability, read-out: Ba/F3 ERBB2 YVMA IC50
Chain of Ba/F3 ERBB2 YVMA (P04626 with tags, fused parts or gaps DUP772-775): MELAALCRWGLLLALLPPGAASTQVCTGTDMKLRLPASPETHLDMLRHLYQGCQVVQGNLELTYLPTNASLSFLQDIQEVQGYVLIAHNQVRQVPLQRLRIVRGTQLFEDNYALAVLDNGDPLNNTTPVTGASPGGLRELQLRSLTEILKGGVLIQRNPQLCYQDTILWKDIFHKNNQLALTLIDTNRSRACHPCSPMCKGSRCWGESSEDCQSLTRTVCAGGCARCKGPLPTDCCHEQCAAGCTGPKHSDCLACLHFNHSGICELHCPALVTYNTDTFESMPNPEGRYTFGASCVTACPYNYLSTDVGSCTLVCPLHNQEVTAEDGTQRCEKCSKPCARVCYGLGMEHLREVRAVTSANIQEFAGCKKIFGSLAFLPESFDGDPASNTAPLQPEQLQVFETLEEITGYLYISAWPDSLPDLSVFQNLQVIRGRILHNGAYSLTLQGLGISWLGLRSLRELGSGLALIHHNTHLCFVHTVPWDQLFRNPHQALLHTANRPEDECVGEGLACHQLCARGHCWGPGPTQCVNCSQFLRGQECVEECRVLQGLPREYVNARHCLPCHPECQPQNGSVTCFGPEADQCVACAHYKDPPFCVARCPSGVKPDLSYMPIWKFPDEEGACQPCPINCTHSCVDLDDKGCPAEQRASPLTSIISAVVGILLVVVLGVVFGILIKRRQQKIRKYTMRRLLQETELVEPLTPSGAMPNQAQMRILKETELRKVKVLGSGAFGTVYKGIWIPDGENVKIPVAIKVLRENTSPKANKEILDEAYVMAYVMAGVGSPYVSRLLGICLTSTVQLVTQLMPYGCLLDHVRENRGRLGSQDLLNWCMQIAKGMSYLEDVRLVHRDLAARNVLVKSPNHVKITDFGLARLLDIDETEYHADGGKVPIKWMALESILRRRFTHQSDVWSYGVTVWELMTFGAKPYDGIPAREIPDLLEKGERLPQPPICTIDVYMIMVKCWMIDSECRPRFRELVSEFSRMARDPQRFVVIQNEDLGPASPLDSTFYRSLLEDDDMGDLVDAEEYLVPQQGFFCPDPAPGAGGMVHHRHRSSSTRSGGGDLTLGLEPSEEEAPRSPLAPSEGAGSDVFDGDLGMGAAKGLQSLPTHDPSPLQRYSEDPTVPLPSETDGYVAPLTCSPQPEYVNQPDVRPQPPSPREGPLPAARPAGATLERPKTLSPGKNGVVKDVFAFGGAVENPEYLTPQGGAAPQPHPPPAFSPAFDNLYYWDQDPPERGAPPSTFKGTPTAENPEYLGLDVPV
Summary of the method: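 IL-3-independent mouse Ba/F3 line stably transduced with human ERBB2 YVMA, seeded at 3000 cells/well, exposed to serially diluted compound (≤0.1% DMSO) for 72 h at 37° C. ATP read by CellTiter Glo luminescence, normalised to DMSO and media-only controls; sigmoidal nonlinear regression fit.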

Compound	IC50 [1] [nM]	IC50 [2] [nM]	GI50 [3] [nM]
C=CC(=O)N1CCN(c2ccc3ncnc(Nc4ccc(Cc5ccc6c(c5)ncn6C)c(C)c4)c3n2)[C@@H](C)C1 [Compound 68, (S)-1-(3-methyl-4-(4-((3-methyl-4-((1-methyl-1H-benzo[d]imidazol-5-yl)methyl)phenyl)amino)pyrido[3,2-d]pyrimidin-6-yl)piperazin-1-yl)prop-2-en-1-one]	2570	44.8	14.7
C=CC(=O)N1CCN(c2ccc3ncnc(Nc4ccc(Cc5ccn6ncnc6c5)c(C)c4)c3c2)[C@@H](C)C1 [Compound 104, (S)-1-(4-(4-((4-([1,2,4]triazolo[1,5-a]pyridin-7-ylmethyl)-3-methylphenyl)amino)quinazolin-6-yl)-3-methylpiperazin-1-yl)prop-2-en-1-one]	> 10000	24.7	65.1
